Article PMC4615133, “Click chemistry armed enzyme-linked immunosorbent assay to measure palmitoylation by hedgehog acyltransferase” (Analytical Biochemistry, 2015)

Biological target: T1, hedgehog acyltransferase (Hhat) (Homo sapiens, UniProt Q5VTY9)
T1 construct: Hhat-3C-FLAG-His8 (cDNA base pairs 4 to 1479), DDM-solubilized P100 membrane fraction from HEK293a cells
Assay: stopped click-ELISA kinetics, apparent Km at […] Shh([…])
Format: cell-based

T1 sequence (Q5VTY9 2-493): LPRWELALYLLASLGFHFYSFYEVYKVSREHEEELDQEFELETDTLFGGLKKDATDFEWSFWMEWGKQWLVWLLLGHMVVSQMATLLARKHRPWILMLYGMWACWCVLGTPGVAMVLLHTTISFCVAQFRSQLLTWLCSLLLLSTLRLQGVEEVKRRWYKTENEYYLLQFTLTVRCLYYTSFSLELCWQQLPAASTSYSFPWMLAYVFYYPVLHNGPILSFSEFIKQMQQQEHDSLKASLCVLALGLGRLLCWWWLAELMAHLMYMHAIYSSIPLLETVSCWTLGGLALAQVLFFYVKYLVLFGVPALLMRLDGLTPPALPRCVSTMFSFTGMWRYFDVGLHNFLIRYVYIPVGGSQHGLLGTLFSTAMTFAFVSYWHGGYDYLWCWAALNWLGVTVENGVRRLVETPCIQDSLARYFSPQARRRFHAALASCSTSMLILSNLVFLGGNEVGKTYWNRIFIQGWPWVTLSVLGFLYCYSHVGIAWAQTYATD

C#CCCCCCCCCCCCCC(=O)SCCNC(=O)CCNC(=O)[C@H](O)C(C)(C)COP(=O)(O)OP(=O)(O)OC[C@H]1O[C@@H](n2cnc3c(N)ncnc32)[C@H](O)[C@@H]1OP(=O)(O)O [YnC15-CoA]
Km: 0.15 ± 0.05 µM
